We go through 19 molecules from ChEMBL document CHEMBL5038642, “Synthesis and Antiviral Activities of Neoechinulin B and Its Derivatives” (J Nat Prod, 2022).

Active and inactive are the calls of the source. The rule behind the calls is not given here.

The test system of data set [1] is SARS-CoV-2. Kind of data set: Antiviral activity against SARS-CoV-2 WK-251 infected in African green monkey Vero E6 cells expressing TMPRSS2 assessed as reduction in viral RNA replication incubated for 24 hrs by qRT-PCR analysis. The format is functional, organism-based, Severe acute respiratory syndrome coronavirus 2. The following applies: for IC50: Severe acute respiratory syndrome coronavirus 2, WK-251, Vero C1008, 24 h. In general terms: Quantitative PCR measures a nucleic acid by following its amplification.

Data set [2] has as its system Huh7.5.1. Kind of data set: Cytotoxicity against human Huh-7.5.1 cells assessed as reduction in cell viability measured at 72 hrs by MTT assay. The format is functional. A general note: Tetrazolium assays rely on reduction of a dye to a coloured formazan, in cell work by metabolically active cells.
The subject of data set [3] is Hepatitis C virus. The experiment in a line: Antiviral activity against HCV JFH-1 infected in human Huh-7.5.1 cells assessed as reduction in viral replication measured after 72 hrs by chemiluminescent enzyme immunoassay. The format is functional, organism-based, Hepacivirus hominis.
The nature of data set [4]: Cytotoxicity against African green monkey Vero E6 cells expressing TMPRSS2 assessed as reduction in cell viability incubated for 24 hrs by DAPI staining based confocal microscopic analysis. Format: toxicity, Vero C1008. The following applies: chlorocebus sabaeus.
Data set [5] has as its system Huh-7.5.1. Kind of data set: Antagonist activity at LXR (unknown origin) expressed in human Huh-7.5.1 cells transfected with luciferase reporter plasmid containing of LXRE assessed as reduction in T0901317-induced reporter activity at 30 uM measured after 48 hrs by luciferase reporter assay. Format: cell-based.
Data set [6] deals with Huh-7.5.1. The experiment in a line: Antagonist activity at LXR (unknown origin) expressed in human Huh-7.5.1 cells transfected with luciferase reporter plasmid containing of LXRE assessed as reduction in T0901317-induced reporter activity at 5 uM measured after 48 hrs by luciferase reporter assay. Format: cell-based. The following applies: filed as antagonist. For orientation: Reporter assays use an easily measured gene product as a stand-in for the process of interest.

For data set [7], the system named is Huh-7.5.1. Kind of data set: Antagonist activity at LXR (unknown origin) expressed in human Huh-7.5.1 cells transfected with luciferase reporter plasmid containing of LXRE assessed as reduction in T0901317-induced reporter activity at 10 uM measured after 48 hrs by luciferase reporter assay. Particulars: filed as antagonist. The format is cell-based.

On to `C=c1[nH]c(=O)/c(=C/c2ccc(C(F)(F)F)cc2)[nH]c1=O`, for which, in data set [1], the concentration for half-maximal inhibition (IC50) (in general, the midpoint of a concentration-inhibition curve) was found to be 9.1 µM. In data set [2], the cytotoxic concentration (CC50) – broadly, the concentration that lowers cell viability or growth by half – was more than 20 µM.

With `C=c1[nH]c(=O)/c(=C/c2ccc(N(C)C)cc2)[nH]c1=O`, the half-maximal cytotoxic concentration (CC50) in data set [2] was more than 20 µM. Still for that read-out and setting: next, `C=c1[nH]c(=O)/c(=C/c2ccc3ccccc3c2)[nH]c1=O`: more than 20 µM; `C=c1[nH]c(=O)/c(=C/c2ccc(C)cc2)[nH]c1=O`: more than 20 µM. Take `C=c1[nH]c(=O)/c(=C/c2ccc3ccc4cccc5ccc2c3c45)[nH]c1=O`: the IC50 in data set [1] was more than 40 µM; in data set [3] (JFH-1, Huh-7.5.1, 72 h), 3.9 µM. The 90% effect concentration (IC90) (as a rule, the point of the concentration-response curve where the effect stands at 90%) was more than 40 µM in data set [1] (Severe acute respiratory syndrome coronavirus 2, WK-251, Vero C1008, time 24 hrs) and more than 20 µM in data set [3] (JFH-1, Huh-7.5.1, time 72 hrs). The 50% cytotoxic concentration (CC50) at 24 h in data set [4] is more than 100 µM. Besides, the CC50 in data set [2] is more than 20 µM. Turning to `C=c1[nH]c(=O)/c(=C/c2cc(C(C)(C)C)cc(C(C)(C)C)c2)[nH]c1=O`, the CC50 in data set [2] was more than 20 µM. Consider `C=c1[nH]c(=O)/c(=C/c2ccccc2)[nH]c1=O`, for which, in data set [2], the half-maximal cytotoxic concentration (CC50) was more than 20 µM. In data set [5], the result was inactive. On to `C=c1[nH]c(=O)/c(=C/c2ccc(C(C)(C)C)cc2)[nH]c1=O`, for which the outcome in data set [6] was Active. Further, the CC50 in data set [2] is more than 20 µM. Take `C=c1[nH]c(=O)/c(=C/c2ccc(-c3ccccc3)cc2)[nH]c1=O`: the cytotoxic concentration (CC50) in data set [2] is more than 20 µM.

Turning to `C=c1[nH]c(=O)/c(=C/c2ccoc2)[nH]c1=O`, in data set [2], the CC50 was more than 20 µM. Still for that read-out and setting: next, `C=c1[nH]c(=O)/c(=C/c2ccc(OC)cc2)[nH]c1=O`: more than 20 µM. Take `C=CC(C)(C)c1[nH]c2ccccc2c1/C=c1\[nH]c(=O)c(=C)[nH]c1=O` [NEOECHINULIN B]: the result in data set [7] was Active. In addition, the CC50 in data set [2] was more than 20 µM. As to `C=CC(C)(C)c1[nH]c2ccccc2c1/C=C1\NC(=O)C(C)(OC)NC1=O` (stereo not drawn) [VARIECOLORIN H], the half-maximal cytotoxic concentration (CC50) in data set [2] was more than 20 µM. Consider `C=c1[nH]c(=O)/c(=C/c2cc(OC)c(OC)c(OC)c2)[nH]c1=O`, for which, in data set [2], the half-maximal cytotoxic concentration (CC50) is more than 20 µM. For `C=c1[nH]c(=O)/c(=C/c2ccc(OC)c(OC)c2)[nH]c1=O`, in data set [2], the CC50 is more than 20 µM. For `C=c1[nH]c(=O)/c(=C/c2ccsc2)[nH]c1=O`, the CC50 in data set [2] was more than 20 µM. Still for that read-out and setting: for `C=c1[nH]c(=O)/c(=C/c2ccc(C(=O)OC)cc2)[nH]c1=O` the value was more than 20 µM; for `C=CC(C)(C)c1[nH]c2ccccc2c1C[C@@H]1NC(=O)[C@H](C)NC1=O` [PREECHINULIN], more than 20 µM; for `C=c1[nH]c(=O)/c(=C/c2c[nH]c3ccccc23)[nH]c1=O`, more than 20 µM.
